Reference: patent publication US20050112573A1, “Method of detecting toxic substance” (priority 2001, published 2005)

Test system: yeast genes (level of expressed mRNA)
Assay: DNA chip analysis of expressed mRNA of yeast genes after 2 h culture with a toxic chemical substance
Type: cell-based, Saccharomyces cerevisiae S288C
Settings: for The level of expressed mRNA in the presence of chemical substance/ (ratio to absence of chemical substance): stress protein genes, DNA chip
Method: Yeast (Saccharomyces cerevtisiae S288C (α SUC2mal mel gap2 CUP1)) were cultured at 25° C. on YPD medium (yeast extract 1%, polypepton 2%, glucose 2%). One of toxic chemical substances was added to the cell at logarithmic growth phase, and the cell was further cultured for two hours. Cell was cultured without any chemical substance in the same condition, and was used as control. Concentrations of the chemical substances were defined to inhibit the growth of the yeast but not lead to death.
After the completion of cultivation, the culture was centrifuged to collect the cells. To the cells, sodium acetate buffer (50 mM sodium acetate, 10 mM EDTA, 1% SDS) was added, and the mixture was shaken at 65° C. for five minutes, followed by returning to room temperature, and obtaining the supernatant, which procedure was repeated two times. To the supernatant, ½ amount of a solution of phenol/chloroform was added, and the mixture was centrifuged to give a supernatant, which was added with an equal amount of chloroform, and the mixture was centrifuged to give a supernatant. To the supernatant, an equal amount of isopropanol containing 0.3 M sodium acetate was added, and the mixture was allowed to stand at room temperature for 30 minutes, after which the mixture was centrifuged to give a sediment of the whole RNAs. Seventy % ethanol was added to the sediment, and the mixture was again centrifuged to give a sediment, which was then dried and dissolved in water. mRNA was isolated from the whole RNAs as followings. In view of the fact that a poly A chain is attached to the 3′ terminus of mRNA, a polynucleotide having a poly T structure which was immobilized on the surface of latex beads was used to trap the mRNA, and then the mRNA was washed and eluted with spine column (Oligotex-dT30<Super>mRNA Purification Kit, Takara). Reverse transcription of the mRNA was conducted with a reverse transcriptase (Super Script II Reverse Transcriptase; catalogue No. 18064-014, GibcoBRL) using fluorescence-labeled nucleotides to give cDNAs that were introduced with Cy3-dUTP or Cy5-dUTP during the reverse transcription.
The labeled cDNAs were dissolved in TE buffer (10 mM Tris-HCl/1 mM EDTA, pH8.0), and the solution was dropped on the DNA chip containing the whole genes of yeast (DNA Chip Research Inc. Japan) so that the cDNAs were hybridized on the DNA chip at 65° C. for over 12 hours. The fluoresces intensity of the DNA chip was read with a scanner, and the ratio relative to the fluorescence intensity resulting from the absence of chemical substance was estimated as the following, which is shown in Tables 1 to 9: [formula]
In the Tables, “Intensity” indicated in the rightmost column is a value of the level of expressed mRNA of each gene in control cells as divided by the average level of the expressions of the whole genes.

Structure (SMILES): COc1cc(CNC(=O)CCCCC=CC(C)C)ccc1O [(12), 8-methyl-N-vanillyl-6-nonenamide]
- The level of expressed mRNA in the presence of chemical substance/The level of expressed mRNA in the absence of chemical substance (yeast gene YIL123W): 0.8
- The level of expressed mRNA in the presence of chemical substance/The level of expressed mRNA in the absence of chemical substance (yeast gene YIL140W): 1.0
- The level of expressed mRNA in the presence of chemical substance/The level of expressed mRNA in the absence of chemical substance (yeast gene YJL052W, two hours culture): 2.4
- The level of expressed mRNA in the presence of chemical substance/ (in its absence), gene YJL070C (yeast gene YJL070C, ratio of DNA chip fluorescence intensity to that without chemical substance): 1.0
- The level of expressed mRNA in the presence of chemical substance/The level of expressed mRNA in the absence of chemical substance (yeast gene YJL073W): 1.0
- The level of expressed mRNA in the presence of chemical substance/The level of expressed mRNA in the absence of chemical substance (yeast gene YJL089W): 1.2
- The level of expressed mRNA in the presence of chemical substance/ (ratio to absence), gene YJL096W (yeast gene YJL096W, mitochondria-located protein genes, 2 h culture with chemical): 1.0
- The level of expressed mRNA in the presence of chemical substance/The level of expressed mRNA in the absence of chemical substance (yeast gene YJL116C): 1.1
- The level of expressed mRNA in the presence of chemical substance/ (ratio to absence of chemical substance) (yeast gene YJL158C): 1.1
- The level of expressed mRNA in the presence of chemical substance/ (in its absence), gene YJL167W (yeast gene YJL167W, ratio of DNA chip fluorescence intensity to that without chemical substance): 1.3
- The level of expressed mRNA in the presence of chemical substance/ (ratio to absence), gene YJL180C (yeast gene YJL180C, mitochondria-located protein genes, 2 h culture with chemical): 0.8
- The level of expressed mRNA in the presence of chemical substance/ (in its absence), gene YJL216C (yeast gene YJL216C, ratio of DNA chip fluorescence intensity to that without chemical substance): 1.0
- The level of expressed mRNA in the presence of chemical substance/The level of expressed mRNA in the absence of chemical substance (yeast gene YJR004C): 0.8
- The level of expressed mRNA in the presence of chemical substance/The level of expressed mRNA in the absence of chemical substance (yeast gene YJR086W): 0.8
- The level of expressed mRNA in the presence of chemical substance/ (ratio to absence of chemical substance) (yeast gene YJR090C): 0.8
- The level of expressed mRNA in the presence of chemical substance/The level of expressed mRNA in the absence of chemical substance (yeast gene YKL008C): 1.5
- The level of expressed mRNA in the presence of chemical substance/The level of expressed mRNA in the absence of chemical substance (yeast gene YKL013C): 0.7
- The level of expressed mRNA in the presence of chemical substance/The level of expressed mRNA in the absence of chemical substance (yeast gene YKL039W): 0.9
- The level of expressed mRNA in the presence of chemical substance/The level of expressed mRNA in the absence of chemical substance (yeast gene YKL041W): 0.8
- The level of expressed mRNA in the presence of chemical substance/The level of expressed mRNA in the absence of chemical substance (yeast gene YKL096W): 0.3
- The level of expressed mRNA in the presence of chemical substance/ (ratio to absence of chemical substance) (yeast gene YKL164C): 0.8
- The level of expressed mRNA in the presence of chemical substance/The level of expressed mRNA in the absence of chemical substance (yeast gene YKL165C): 2.4
- The level of expressed mRNA in the presence of chemical substance/The level of expressed mRNA in the absence of chemical substance (yeast gene YKL193C): 0.9
- The level of expressed mRNA in the presence of chemical substance/ (in its absence), gene YKR009C (yeast gene YKR009C, ratio of DNA chip fluorescence intensity to that without chemical substance): 1.0
- The level of expressed mRNA in the presence of chemical substance/ (in its absence), gene YKR034W (yeast gene YKR034W, ratio of DNA chip fluorescence intensity to that without chemical substance): 0.7
- The level of expressed mRNA in the presence of chemical substance/ (ratio to absence of chemical substance) (yeast gene YKR053C): 0.7
- The level of expressed mRNA in the presence of chemical substance/ in its absence, gene YKR058W (yeast gene YKR058W, energy system protein genes, 2 h culture with the chemical, ratio to control without chemical): 0.9
- The level of expressed mRNA in the presence of chemical substance/ (in its absence), gene YLR006C (yeast gene YLR006C, ratio of DNA chip fluorescence intensity to that without chemical substance): 0.7
- The level of expressed mRNA in the presence of chemical substance/ (ratio to absence of chemical substance) (yeast gene YLR006C): 0.7
- The level of expressed mRNA in the presence of chemical substance/The level of expressed mRNA in the absence of chemical substance (yeast gene YLR120C): 1.6
- The level of expressed mRNA in the presence of chemical substance/The level of expressed mRNA in the absence of chemical substance (yeast gene YLR136C): 1.3
- The level of expressed mRNA in the presence of chemical substance/The level of expressed mRNA in the absence of chemical substance (yeast gene YLR178C): 2.2
- The level of expressed mRNA in the presence of chemical substance/The level of expressed mRNA in the absence of chemical substance (yeast gene YLR250W): 1.0
- The level of expressed mRNA in the presence of chemical substance/ in its absence, gene YLR295C (yeast gene YLR295C, energy system protein genes, 2 h culture with the chemical, ratio to control without chemical): 0.5
- The level of expressed mRNA in the presence of chemical substance/ (ratio to absence), gene YLR295C (yeast gene YLR295C, mitochondria-located protein genes, 2 h culture with chemical): 0.5
- The level of expressed mRNA in the presence of chemical substance/The level of expressed mRNA in the absence of chemical substance (yeast gene YLR327C): 1.4
- The level of expressed mRNA in the presence of chemical substance/ (in its absence), gene YLR351C (yeast gene YLR351C, ratio of DNA chip fluorescence intensity to that without chemical substance): 0.9
- The level of expressed mRNA in the presence of chemical substance/The level of expressed mRNA in the absence of chemical substance (yeast gene YLR356W): 1.5
- The level of expressed mRNA in the presence of chemical substance/The level of expressed mRNA in the absence of chemical substance (yeast gene YLR362W): 0.8
- The level of expressed mRNA in the presence of chemical substance/ (in its absence), gene YLR375W (yeast gene YLR375W, ratio of DNA chip fluorescence intensity to that without chemical substance): 0.9
- The level of expressed mRNA in the presence of chemical substance/The level of expressed mRNA in the absence of chemical substance (yeast gene YLR391W): 1.0
- The level of expressed mRNA in the presence of chemical substance/The level of expressed mRNA in the absence of chemical substance (yeast gene YLR429W): 1.1
- The level of expressed mRNA in the presence of chemical substance/ in its absence, gene YML129C (yeast gene YML129C, energy system protein genes, 2 h culture with the chemical, ratio to control without chemical): 0.8
- The level of expressed mRNA in the presence of chemical substance/ (ratio to absence), gene YML129C (yeast gene YML129C, mitochondria-located protein genes, 2 h culture with chemical): 0.8
- The level of expressed mRNA in the presence of chemical substance/The level of expressed mRNA in the absence of chemical substance (yeast gene YMR004W): 1.0
- The level of expressed mRNA in the presence of chemical substance/ (ratio to absence), gene YMR023C (yeast gene YMR023C, mitochondria-located protein genes, 2 h culture with chemical): 0.7
- The level of expressed mRNA in the presence of chemical substance/The level of expressed mRNA in the absence of chemical substance (yeast gene YMR094W): 0.9
- The level of expressed mRNA in the presence of chemical substance/The level of expressed mRNA in the absence of chemical substance (yeast gene YMR104C): 1.0
- The level of expressed mRNA in the presence of chemical substance/ (ratio to absence of chemical substance) (yeast gene YMR186W): 1.0
- The level of expressed mRNA in the presence of chemical substance/The level of expressed mRNA in the absence of chemical substance (yeast gene YMR219W): 1.5
- The level of expressed mRNA in the presence of chemical substance/The level of expressed mRNA in the absence of chemical substance (yeast gene YMR226C): 1.1
- The level of expressed mRNA in the presence of chemical substance/ in its absence, gene YMR267W (yeast gene YMR267W, energy system protein genes, 2 h culture with the chemical, ratio to control without chemical): 0.8
- The level of expressed mRNA in the presence of chemical substance/ (ratio to absence), gene YMR267W (yeast gene YMR267W, mitochondria-located protein genes, 2 h culture with chemical): 0.8
- The level of expressed mRNA in the presence of chemical substance/ in its absence, gene YMR267W (yeast gene YMR267W, ratio of DNA chip fluorescence intensity to that without chemical substance): 0.8
- The level of expressed mRNA in the presence of chemical substance/The level of expressed mRNA in the absence of chemical substance (yeast gene YMR275C): 0.7
- The level of expressed mRNA in the presence of chemical substance/The level of expressed mRNA in the absence of chemical substance (yeast gene YMR276W): 1.2
- The level of expressed mRNA in the presence of chemical substance/ (in its absence), gene YMR278W (yeast gene YMR278W, ratio of DNA chip fluorescence intensity to that without chemical substance): 1.0
- The level of expressed mRNA in the presence of chemical substance/ (in its absence), gene YMR293C (yeast gene YMR293C, ratio of DNA chip fluorescence intensity to that without chemical substance): 0.9
